Laboratory results: ChEMBL document CHEMBL3526130, “An evaluation of using rat-derived single-dose neuropharmacokinetic parameters to project accurately large animal unbound brain drug concentrations” (Drug Metab Dispos, 2012)
Each block holds one compound with its values, some of them ahead of it.

Tests used:
[1] = Unbound fraction in cynomolgus monkey plasma at 1 mg/kg, sc by LC-MS/MS analysis; format: ADME, organism-based, Macaca fascicularis; parameters: dose 1 mg/kg, route subcutaneous
[2] = AUC(0 to 2 hrs) in cynomolgus monkey brain at 1 mg/kg, sc by LC-MS/MS analysis; format: ADME, organism-based, Macaca fascicularis; parameters: time < 2 hr, dose 1 mg/kg, route subcutaneous
[3] = AUC(0 to 2 hrs) in cynomolgus monkey cerebrospinal fluid at 1 mg/kg, sc by LC-MS/MS analysis; format: ADME, organism-based, Macaca fascicularis; parameters: time < 2 hr, dose 1 mg/kg, route subcutaneous
[4] = AUC(0 to infinity) in Sprague-Dawley rat cerebrospinal fluid at 3.2 mg/kg, sc by LC-MS/MS analysis; format: ADME, organism-based; parameters: time infinity, dose 3.2 mg/kg, route subcutaneous
[5] = AUC(0 to 4 hrs) in Beagle dog plasma at 1 mg/kg, sc by LC-MS/MS analysis; format: ADME, organism-based, Canis lupus familiaris; parameters: time < 4 hr, dose 1 mg/kg, route subcutaneous
[6] = AUC(0 to 4 hrs) in Beagle dog brain at 1 mg/kg, sc by LC-MS/MS analysis; format: ADME, organism-based, Canis lupus familiaris; parameters: time < 4 hr, dose 1 mg/kg, route subcutaneous
[7] = AUC(0 to infinity) in Sprague-Dawley rat plasma at 3.2 mg/kg, sc by LC-MS/MS analysis; format: ADME, organism-based; parameters: time infinity, dose 3.2 mg/kg, route subcutaneous
[8] = AUC(0 to infinity) in Sprague-Dawley rat brain at 3.2 mg/kg, sc by LC-MS/MS analysis; format: ADME, organism-based; parameters: time infinity, dose 3.2 mg/kg, route subcutaneous
[9] = Unbound fraction in Beagle dog brain at 1 mg/kg, sc by LC-MS/MS analysis; format: ADME, organism-based, Canis lupus familiaris; parameters: dose 1 mg/kg, route subcutaneous
[10] = Ratio of drug level in brain to plasma in Beagle dog at 1 mg/kg, sc by LC-MS/MS analysis; format: ADME, organism-based, Canis lupus familiaris; parameters: dose 1 mg/kg, route subcutaneous; conditions: brain and plasma, read-out: BPR
[11] = Ratio of unbound drug level in brain to plasma in cynomolgus monkey at 1 mg/kg, sc by LC-MS/MS analysis; format: ADME, organism-based, Macaca fascicularis; parameters: dose 1 mg/kg, route subcutaneous; conditions: brain and plasma
[12] = AUC(0 to 2 hrs) in Sprague-Dawley rat cerebrospinal fluid at 3.2 mg/kg, sc by LC-MS/MS analysis; format: ADME, organism-based; parameters: time < 2 hr, dose 3.2 mg/kg, route subcutaneous
[13] = Ratio of unbound brain concentration to drug level in cerebrospinal fluid in cynomolgus monkey at 1 mg/kg, sc by LC-MS/MS analysis; format: ADME, organism-based, Macaca fascicularis; parameters: dose 1 mg/kg, route subcutaneous; conditions: in vivo
[14] = AUC(0 to 2 hrs) in cynomolgus monkey plasma at 1 mg/kg, sc by LC-MS/MS analysis; format: ADME, organism-based, Macaca fascicularis; parameters: time < 2 hr, dose 1 mg/kg, route subcutaneous
[15] = Unbound fraction in cynomolgus monkey brain at 1 mg/kg, sc by LC-MS/MS analysis; format: ADME, organism-based, Macaca fascicularis; parameters: dose 1 mg/kg, route subcutaneous
[16] = Ratio of unbound brain concentration to drug level in cerebrospinal fluid in Sprague-Dawley rat at 3.2 mg/kg, sc by LC-MS/MS analysis; format: ADME, organism-based; parameters: dose 3.2 mg/kg, route subcutaneous; conditions: in vivo
[17] = Ratio of unbound drug level in brain to plasma in Beagle dog at 1 mg/kg, sc by LC-MS/MS analysis; format: ADME, organism-based, Canis lupus familiaris; parameters: dose 1 mg/kg, route subcutaneous; conditions: brain and plasma
[18] = Ratio of drug level in brain to plasma in Sprague-Dawley rat at 3.2 mg/kg, sc by LC-MS/MS analysis; format: ADME, organism-based; parameters: dose 3.2 mg/kg, route subcutaneous; conditions: read-out: BPR
[19] = AUC(0 to 2 hrs) in Sprague-Dawley rat brain at 3.2 mg/kg, sc by LC-MS/MS analysis; format: ADME, organism-based; parameters: time < 2 hr, dose 3.2 mg/kg, route subcutaneous
Nucleic Acid [20] = assay: Ratio of drug level in cerebrospinal fluid to unbound plasma concentration in cynomolgus monkey at 1 mg/kg, sc by LC-MS/MS analysis; format: ADME, organism-based, Macaca fascicularis; parameters: dose 1 mg/kg, route subcutaneous; conditions: in vivo
Nucleic Acid [21] = assay: Ratio of drug level in cerebrospinal fluid to unbound plasma concentration in Sprague-Dawley rat at 3.2 mg/kg, sc by LC-MS/MS analysis; format: ADME, organism-based; parameters: dose 3.2 mg/kg, route subcutaneous; conditions: in vivo
[22] = Unbound fraction in Beagle dog plasma at 1 mg/kg, sc by LC-MS/MS analysis; format: ADME, organism-based, Canis lupus familiaris; parameters: dose 1 mg/kg, route subcutaneous
[23] = Ratio of unbound drug level in brain to plasma in Sprague-Dawley rat at 3.2 mg/kg, sc by LC-MS/MS analysis; format: ADME, organism-based; parameters: dose 3.2 mg/kg, route subcutaneous
[24] = AUC(0 to 2 hrs) in Sprague-Dawley rat plasma at 3.2 mg/kg, sc by LC-MS/MS analysis; format: ADME, organism-based; parameters: time < 2 hr, dose 3.2 mg/kg, route subcutaneous
[25] = Ratio of drug level in brain to plasma in cynomolgus monkey at 1 mg/kg, sc by LC-MS/MS analysis; format: ADME, organism-based, Macaca fascicularis; parameters: dose 1 mg/kg, route subcutaneous; conditions: brain and plasma, read-out: BPR
[26] = AUC(0 to infinity) in Sprague-Dawley rat cerebrospinal fluid at 2 mg/kg, sc by LC-MS/MS analysis; format: ADME, organism-based; parameters: time infinity, dose 2 mg/kg, route subcutaneous
Nucleic Acid [27] = assay: Ratio of drug level in cerebrospinal fluid to unbound plasma concentration in Sprague-Dawley rat at 2 mg/kg, sc by LC-MS/MS analysis; format: ADME, organism-based; parameters: dose 2 mg/kg, route subcutaneous; conditions: in vivo
[28] = Ratio of unbound brain concentration to drug level in cerebrospinal fluid in Sprague-Dawley rat at 2 mg/kg, sc by LC-MS/MS analysis; format: ADME, organism-based; parameters: dose 2 mg/kg, route subcutaneous; conditions: in vivo
[29] = AUC(0 to 2 hrs) in Sprague-Dawley rat brain at 2 mg/kg, sc by LC-MS/MS analysis; format: ADME, organism-based; parameters: time < 2 hr, dose 2 mg/kg, route subcutaneous
[30] = Ratio of drug level in brain to plasma in Sprague-Dawley rat at 2 mg/kg, sc by LC-MS/MS analysis; format: ADME, organism-based; parameters: dose 2 mg/kg, route subcutaneous; conditions: read-out: BPR
[31] = AUC(0 to 2 hrs) in Sprague-Dawley rat plasma at 2 mg/kg, sc by LC-MS/MS analysis; format: ADME, organism-based; parameters: time < 2 hr, dose 2 mg/kg, route subcutaneous
[32] = AUC(0 to infinity) in Sprague-Dawley rat plasma at 2 mg/kg, sc by LC-MS/MS analysis; format: ADME, organism-based; parameters: time infinity, dose 2 mg/kg, route subcutaneous
[33] = AUC(0 to infinity) in Sprague-Dawley rat brain at 2 mg/kg, sc by LC-MS/MS analysis; format: ADME, organism-based; parameters: dose 2 mg/kg, route subcutaneous, time infinity
[34] = AUC(0 to 2 hrs) in Sprague-Dawley rat cerebrospinal fluid at 2 mg/kg, sc by LC-MS/MS analysis; format: ADME, organism-based; parameters: time < 2 hr, dose 2 mg/kg, route subcutaneous
[35] = Ratio of unbound drug level in brain to plasma in Sprague-Dawley rat at 2 mg/kg, sc by LC-MS/MS analysis; format: ADME, organism-based; parameters: dose 2 mg/kg, route subcutaneous

fraction unbound [1]: 0.0279
AUC(0-t) at 2 h [2]: 2250 ng·h/mL
AUC(0-t) at 2 h [3]: 2.18 ng·h/mL
AUC(0-inf) [4]: 8.12 ng·h/mL
AUC(0-t) at 4 h [5]: 134 ng·h/mL
AUC(0-t) at 4 h [6]: 2260 ng·h/mL
AUC(0-inf) [7]: 479 ng·h/mL
AUC(0-inf) [8]: 5570 ng·h/mL
fraction unbound [9]: 0.00443
Kp [10]: 16.9
Kp uu [11]: 2.04
AUC(0-t) at 2 h [12]: 6.42 ng·h/mL
Ratio [13]: 3.92
AUC(0-t) at 2 h [14]: 150 ng·h/mL
fraction unbound [15]: 0.0038
Ratio [16]: 2.65
Kp uu [17]: 4.61
Kp [18]: 11.1
AUC(0-t) at 2 h [19]: 3360 ng·h/mL
Ratio (Nucleic Acid [20]): 0.52
Ratio (Nucleic Acid [21]): 1.47
fraction unbound [22]: 0.0162
Kp uu [23]: 3.9
AUC(0-t) at 2 h [24]: 302 ng·h/mL
Kp [25]: 15
Compound: CNCc1cc(F)c(Cl)cc1Oc1cccc(OC)c1C

AUC(0-inf) [26]: 8.91 ng·h/mL
Ratio (Nucleic Acid [27]): 0.22
Ratio [28]: 0.26
AUC(0-t) at 2 h [29]: 221 ng·h/mL
Kp [30]: 0.64
AUC(0-t) at 2 h [31]: 346 ng·h/mL
AUC(0-inf) [32]: 570 ng·h/mL
AUC(0-inf) [33]: 699 ng·h/mL
AUC(0-t) at 2 h [34]: 4.8 ng·h/mL
Kp uu [35]: 0.06
Compound: Clc1ccc2c(c1)N=C(N1CCNCC1)c1ccccc1N2 [N-DESMETHYLCLOZAPINE]
